Data on 1 molecule can be found in the NIST ThermoML archive (doi:10.1021/je501026m).

Numbers after ± are expanded uncertainties.

For this data set the following is noted: Crystal; DTA.

As to `C[n+]1ccn(CCOCCn2cc[n+](C)c2)c1.F[P-](F)(F)(F)(F)F.F[P-](F)(F)(F)(F)F`, the Normal melting temperature is 98.00 ± 1 °C.
